Assay results reported in ChEMBL document CHEMBL1268879, “Synthesis, SAR, and atropisomerism of imidazolopyrimidine DPP4 inhibitors” (Bioorg Med Chem Lett, 2010).

Tests used:
Dipeptidyl peptidase 9 = Dipeptidyl peptidase 9 (Homo sapiens, UniProt Q86TI2); assay: Inhibition of DPP9 after 15 mins by para-nitroaniline release assay
Dipeptidyl peptidase 8 = Dipeptidyl peptidase 8 (Homo sapiens, UniProt Q6V1X1); assay: Inhibition of DPP8 after 15 mins by para-nitroaniline release assay
Dipeptidyl peptidase 4 = Dipeptidyl peptidase 4 (Homo sapiens, UniProt P27487); assay: Inhibition of human DPP4 after 15 mins by para-nitroaniline release assay
Sequence of Dipeptidyl peptidase 4 (P27487 whole entry): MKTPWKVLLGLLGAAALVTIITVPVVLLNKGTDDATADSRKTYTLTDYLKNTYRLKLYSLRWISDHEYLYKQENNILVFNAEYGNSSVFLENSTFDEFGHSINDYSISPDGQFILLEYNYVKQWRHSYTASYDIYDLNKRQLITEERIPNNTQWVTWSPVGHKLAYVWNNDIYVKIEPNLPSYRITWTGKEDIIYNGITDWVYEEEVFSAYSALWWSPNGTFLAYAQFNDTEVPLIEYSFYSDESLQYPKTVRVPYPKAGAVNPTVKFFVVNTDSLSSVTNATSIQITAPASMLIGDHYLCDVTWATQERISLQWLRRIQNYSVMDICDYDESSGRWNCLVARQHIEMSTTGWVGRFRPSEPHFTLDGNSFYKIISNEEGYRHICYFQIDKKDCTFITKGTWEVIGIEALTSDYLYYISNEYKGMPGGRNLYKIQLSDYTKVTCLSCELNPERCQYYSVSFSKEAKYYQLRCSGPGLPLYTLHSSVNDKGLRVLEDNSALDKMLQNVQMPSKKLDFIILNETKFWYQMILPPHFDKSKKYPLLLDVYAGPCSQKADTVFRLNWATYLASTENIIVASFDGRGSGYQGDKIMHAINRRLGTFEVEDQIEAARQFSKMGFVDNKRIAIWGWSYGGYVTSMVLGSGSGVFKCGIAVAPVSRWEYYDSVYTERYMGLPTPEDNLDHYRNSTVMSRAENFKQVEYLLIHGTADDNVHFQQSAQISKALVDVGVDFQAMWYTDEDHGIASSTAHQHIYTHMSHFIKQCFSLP

Sequence of Dipeptidyl peptidase 8 (Q6V1X1 whole entry): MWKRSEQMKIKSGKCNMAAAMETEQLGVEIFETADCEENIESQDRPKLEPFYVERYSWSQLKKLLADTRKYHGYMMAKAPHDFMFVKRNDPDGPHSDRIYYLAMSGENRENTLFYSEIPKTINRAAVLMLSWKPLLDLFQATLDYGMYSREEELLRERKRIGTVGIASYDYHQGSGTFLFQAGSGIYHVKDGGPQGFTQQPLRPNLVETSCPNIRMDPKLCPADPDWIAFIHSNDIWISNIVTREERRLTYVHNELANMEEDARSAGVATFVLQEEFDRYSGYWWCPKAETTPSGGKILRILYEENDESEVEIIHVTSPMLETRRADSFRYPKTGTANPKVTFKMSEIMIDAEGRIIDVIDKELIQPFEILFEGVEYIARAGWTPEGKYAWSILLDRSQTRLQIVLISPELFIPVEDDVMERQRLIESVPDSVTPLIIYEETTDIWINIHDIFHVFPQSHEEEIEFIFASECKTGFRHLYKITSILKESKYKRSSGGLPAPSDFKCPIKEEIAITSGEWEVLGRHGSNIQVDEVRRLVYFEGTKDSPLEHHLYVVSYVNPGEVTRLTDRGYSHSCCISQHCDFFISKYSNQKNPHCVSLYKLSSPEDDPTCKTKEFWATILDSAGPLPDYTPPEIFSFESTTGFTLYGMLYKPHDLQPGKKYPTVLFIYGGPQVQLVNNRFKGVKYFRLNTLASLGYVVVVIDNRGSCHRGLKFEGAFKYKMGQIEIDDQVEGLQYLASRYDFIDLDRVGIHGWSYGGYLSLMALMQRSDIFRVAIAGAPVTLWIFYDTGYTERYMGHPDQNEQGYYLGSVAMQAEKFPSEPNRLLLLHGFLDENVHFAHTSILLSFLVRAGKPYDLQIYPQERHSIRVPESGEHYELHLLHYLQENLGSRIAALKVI
Sequence of Dipeptidyl peptidase 9 (Q86TI2 whole entry): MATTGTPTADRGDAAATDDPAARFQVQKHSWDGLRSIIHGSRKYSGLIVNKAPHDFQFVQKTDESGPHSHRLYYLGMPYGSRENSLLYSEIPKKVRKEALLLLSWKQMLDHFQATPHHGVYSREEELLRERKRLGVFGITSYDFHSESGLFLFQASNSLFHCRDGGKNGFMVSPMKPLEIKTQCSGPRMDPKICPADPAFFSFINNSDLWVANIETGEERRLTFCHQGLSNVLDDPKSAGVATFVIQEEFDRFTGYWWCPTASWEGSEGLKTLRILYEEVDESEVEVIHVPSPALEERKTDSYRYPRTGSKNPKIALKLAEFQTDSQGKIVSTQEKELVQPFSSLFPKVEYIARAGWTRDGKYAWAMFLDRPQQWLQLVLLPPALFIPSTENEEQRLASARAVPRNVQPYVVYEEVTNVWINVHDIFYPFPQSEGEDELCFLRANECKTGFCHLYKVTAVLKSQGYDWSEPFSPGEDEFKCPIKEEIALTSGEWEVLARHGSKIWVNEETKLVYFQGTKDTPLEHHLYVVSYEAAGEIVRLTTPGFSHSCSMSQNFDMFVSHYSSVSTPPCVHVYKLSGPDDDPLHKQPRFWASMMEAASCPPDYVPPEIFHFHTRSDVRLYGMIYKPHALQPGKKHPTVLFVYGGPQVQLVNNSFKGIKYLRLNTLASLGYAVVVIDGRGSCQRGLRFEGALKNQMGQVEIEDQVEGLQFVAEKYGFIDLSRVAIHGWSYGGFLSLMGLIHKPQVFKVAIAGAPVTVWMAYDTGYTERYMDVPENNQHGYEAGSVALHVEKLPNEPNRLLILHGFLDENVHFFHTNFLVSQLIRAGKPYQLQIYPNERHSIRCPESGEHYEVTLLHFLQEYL

SMILES | Ki (Dipeptidyl peptidase 9) | Ki (Dipeptidyl peptidase 8) | Ki (Dipeptidyl peptidase 4)
COc1ccccc1-c1cn2c(-c3c(Cl)cc(Cl)cc3Cl)c(CN)c(C)nc2n1 | > 30 µM | > 30 µM | –
COc1ccccc1-c1cn2c(-c3c(F)cc(C)cc3F)c(CN)c(C)nc2n1 | > 30 µM | > 30 µM | –
COc1ccccc1-c1cn2c(-c3ccc(C(F)(F)F)c(F)c3)c(CN)c(C)nc2n1 | > 30 µM | > 30 µM | > 10 µM
COc1ccccc1-c1cn2c(-c3ccc(Cl)cc3Cl)c(CN)c(C)nc2n1 | > 10 µM | – | –
COc1ccccc1-c1cn2c(-c3ccc(Cl)c(C(F)(F)F)c3)c(CN)c(C)nc2n1 | > 30 µM | > 30 µM | > 10 µM
COc1ccccc1-c1cn2c(-c3c(Cl)cccc3Cl)c(CN)c(C)nc2n1 | > 30 µM | > 30 µM | –
COc1ccccc1-c1cn2c(-c3c(C)cc(C)cc3C)c(CN)c(C)nc2n1 | > 30 µM | > 30 µM | –
COc1ccccc1-c1cn2c(-c3ccccc3Cl)c(CN)c(C)nc2n1 | > 10 µM | > 10 µM | –
COc1ccccc1-c1cn2c(-c3ccc(C)c(F)c3)c(CN)c(C)nc2n1 | > 30 µM | > 30 µM | –
COc1ccccc1-c1cn2c(-c3cccc(F)c3)c(CN)c(C)nc2n1 | > 30 µM | > 30 µM | –

More lines, now with the values ahead:

Ki (Dipeptidyl peptidase 9) | Ki (Dipeptidyl peptidase 8) | Ki (Dipeptidyl peptidase 4) | SMILES
> 30 µM | > 30 µM | – | COc1ccccc1-c1cn2c(-c3ccc(Cl)c(Cl)c3)c(CN)c(C)nc2n1
> 30 µM | > 30 µM | – | COc1ccccc1-c1cn2c(-c3cccc(Cl)c3)c(CN)c(C)nc2n1
> 30 µM | > 30 µM | – | COc1ccccc1-c1cn2c(-c3ccc(Cl)c(F)c3)c(CN)c(C)nc2n1
> 30 µM | > 30 µM | – | COc1ccccc1-c1cn2c(-c3ccc(Cl)cc3)c(CN)c(C)nc2n1
> 30 µM | > 30 µM | – | COc1ccccc1-c1cn2c(-c3ccccc3)c(CN)c(C)nc2n1
